Common to all, as to test: NCI tumour cell line growth inhibition, 48 h
In experiment [1] the test system is CCRF-CEM leukemia.
For experiment [2], the system named is HCC-2998 colon.
Experiment [3] concerns MDA-MB-435.
The test system of experiment [4] is OVCAR-3 ovarian.
Experiment [5] relates to RXF 393 renal.
Experiment [6] deals with SK-OV-3 ovarian.
Experiment [7] concerns SN12C renal.
The subject of experiment [8] is SNB-19 CNS.
Experiment [9] has as its system TK-10 renal.
For experiment [10], the system named is U251 CNS.

“And” between values parts separate entries of the source, which are not always exact repeats. Identical values can stand only once.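 Compound exposure: 48 hours, 5 concentrations, 96-well plates. GI50 = concentration required for 50% inhibition of growth. TGI denotes the concentration required for complete inhibition of growth.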

On to `C[C@@H]1C[C@@H]2OC(=O)[C@]3(C)[C@H]2[C@@H](OC3(C)O)[C@]2(C)C(=O)C=C[C@@H]12` (stereo partly drawn), for which the TGI in [1] was 31.8 µM; in experiment [2] it was 35.1 µM; in experiment [3] it was 66.9 µM; in experiment [4], 44.3 µM; in experiment [5], 46 µM; in experiment [6], > 100 µM. Also, the TGI in experiment [7] was 38.1 µM; in experiment [8], > 100 µM; in [9], > 100 µM; in [10] it was > 100 µM.

Consider `CC1=NN(c2ccccc2)C(=O)/C1=C\c1c(C)[nH]n(-c2ccccc2)c1=O`, for which the TGI in experiment [1], in experiment [2], in experiment [3], in experiment [4], in [5] and in experiment [6] was > 100 µM in each case. Further, the TGI in experiment [7], in [8], in [9] and in [10] was > 100 µM each time.

For the compound `CCOC(=O)/C=C(/C(=O)OCC)n1cc(C)c(=O)n(Cc2cn(CCCCOC(C)=O)nn2)c1=O`, the TGI is 2.31 µM in [1]; 36.6 µM in [2]; 28.4 µM in experiment [3]; 33.4 µM in experiment [4]; > 100 µM in experiment [5]; > 100 µM in experiment [6]. Besides, the TGI in [7] is 91.7 µM; in experiment [8] it was 41.9 µM; in experiment [9] it was 16.7 µM; in [10] it was 45.3 µM.

On to `CCOC(=O)c1c(SC(=O)c2ccc(Cl)cc2)n(-c2ccccc2)c(=S)n(-c2ccccc2)c1=O`, for which the TGI in experiment [1], in [2], in experiment [3], in experiment [4], in [5] and in experiment [6] was > 100 µM each time. Besides, the TGI in [7], in experiment [8], in experiment [9] and in experiment [10] was > 100 µM each time.

In the case of `COC1OC(C)/C(=N/O)C2OC(C)(C)OC12` (stereo not drawn), the TGI in [1], in experiment [2], in experiment [3], in experiment [4], in [5] and in [6] was > 100 µM each time. Further, the TGI in [7], in experiment [8], in [9] and in experiment [10] was > 100 µM in each case.

Take `COc1ccc(Cn2c(=O)c(OS(=O)(=O)C(F)(F)F)c(C)c3cc4ccccc4cc32)cc1`: the TGI in [1], in [2], in [3], in [4], in [5] and in experiment [6] was > 100 µM each time. In addition, the TGI in experiment [7], in experiment [8], in experiment [9] and in [10] was > 100 µM each time.

Regarding `O=C(NNC(=O)c1ccc(Cl)cc1NC(=O)C12CC3CC(CC(C3)C1)C2)c1ccc(Cl)cc1`, the TGI in [1] is 62.5 µM; in experiment [2], 33.4 µM; in experiment [3] it was 35.6 µM; in experiment [4], 58.3 µM; in experiment [5] it was 40.3 µM; in [6] it was 60.3 µM. Further, the TGI in experiment [7] was > 100 µM; in experiment [8], 39.4 µM; in experiment [9] it was 57.2 µM; in experiment [10] it was 45.4 µM.

As to `O=C(O)c1c(CC(Cc2ccccc2)C(=O)O)ccc2c1CCC2` (stereo not drawn), the TGI in experiment [1], in experiment [2], in experiment [3], in [4], in experiment [5] and in experiment [6] was > 100 µM in each case. The TGI in experiment [7], in [8], in [9] and in [10] was > 100 µM each time.

`CC1(C)CC(=O)C2=C(C1)NC(=S)C(C#N)C2c1ccccc1` (stereo not drawn): the TGI in [1], in [2], in experiment [3], in experiment [4], in experiment [5] and in experiment [6] was > 100 µM each time. In addition, the TGI in experiment [7], in experiment [8], in experiment [9] and in [10] was > 100 µM each time.

Take `CN1CCC(O)(OC(=O)C(c2ccccc2)C2(O)CCCC2)CC1` (stereo not drawn): the TGI in experiment [1], in experiment [2], in [3], in [4], in experiment [5] and in experiment [6] was > 100 µM each time. For the same compound, the TGI in [7], in [8], in experiment [9] and in [10] was > 100 µM in each case.

For `Cc1oc(N)c(S(=O)(=O)/C(C#N)=C/c2ccccc2[N+](=O)[O-])c1C`, the TGI in experiment [1] is 68.5 µM; in experiment [2], > 100 µM; in experiment [3] it was > 100 µM; in experiment [4], 46.3 µM; in [5], 52.8 µM; in [6], > 100 µM. Moreover, the TGI in experiment [7] is 47.8 µM; in [8], 77.4 µM; in experiment [9], > 100 µM; in [10], 36.3 µM.

Consider `O=C(CCC(NC(=O)OCc1ccccc1)C(=O)OCc1ccccc1)Nc1cccc(OCc2ccccc2)c1` (stereo not drawn), for which the TGI in experiment [1] was 99.4 µM; in [2], > 100 µM; in [3], 43.1 µM; in experiment [4], 45.4 µM; in experiment [5], 46.8 µM; in experiment [6], > 100 µM. Further, the TGI is 46 µM in experiment [7], > 100 µM in experiment [8], 90.3 µM in experiment [9] and > 100 µM in [10].

Turning to `C#CCn1c(I)cc2c(c1=O)COC(=O)[C@]2(O)CC`, the TGI in experiment [1], in [2], in experiment [3], in experiment [4], in [5] and in experiment [6] was > 100 µM each time. In addition, the TGI in [7], in [8], in experiment [9] and in experiment [10] was > 100 µM in each case.

As for `CC(C)(C)c1cc(C(C)(C)C)c(SC2OC(CO)C(O)C(O)C2O)c(O)c1O` (stereo not drawn), the TGI in [1] was > 34.7 µM; in experiment [2], 18.2 µM; in experiment [3], 21 µM; in experiment [4] it was 28.4 µM; in experiment [5], 14.1 µM; in experiment [6], 32.9 µM. Moreover, the TGI worked out at 25.8 µM in experiment [7], 24.5 µM in experiment [8], 46.3 µM in experiment [9] and 20.3 µM in experiment [10].

Turning to `CC(C)=CC(=O)OC1C2C(C)=CC(=O)C(O)C2(C)C2C3(O)OCC24C(CC(=O)OC14)C(C)C3O` (stereo not drawn), the GI50 in [1] is 0.02 µM; in [2] it was 0.0229 µM; in experiment [5], 0.0339 µM; in experiment [6], 0.549 µM; in [7] it was 0.0133 µM and 0.0406 µM; in experiment [8] it was 0.0273 µM. For the same compound, the values for the GI50 in experiment [9] and in experiment [10] were 0.0511 µM and 0.02 µM, respectively. Also, the TGI in [1] was 0.109 µM and 0.177 µM and 0.253 µM; in experiment [2], 0.0532 µM and 0.0278 µM and 0.0513 µM; in [3], 0.0103 µM; in experiment [4], 0.0226 µM and 0.0354 µM; in [5] it was 0.0732 µM and 0.131 µM; in experiment [6] it was 0.709 µM and 3.74 µM. For the same compound, the TGI was 0.245 µM and 0.089 µM and 0.327 µM in experiment [7]; 0.0303 µM and 0.0462 µM in [8]; 0.0917 µM and 0.81 µM in [9]; 0.0192 µM and 0.0314 µM in experiment [10].

For the compound `O=[N+]([O-])/C(Cl)=C(\NCCO)C(Cl)=C(Cl)Cl`, the TGI in [1] was 52.1 µM; in [2] it was > 100 µM; in experiment [3], > 100 µM; in experiment [4], > 100 µM; in experiment [5], > 96.3 µM; in experiment [6], > 100 µM. Moreover, the TGI in [7], in experiment [8], in experiment [9] and in experiment [10] was > 100 µM each time.

In the case of `CC(Cl)(CCC(Cl)C(C)(C)Cl)C(=O)CBr` (stereo not drawn), the TGI in experiment [1] is > 21.5 µM; in experiment [2], 30.9 µM; in [3] it was 30.6 µM; in [4] it was 29.5 µM; in experiment [5] it was 11.2 µM; in experiment [6], 26.9 µM. For the same compound, the TGI in [7] was 28.7 µM; in experiment [8], > 85.5 µM; in experiment [9] it was 24.1 µM; in experiment [10], 29.8 µM.

As for `COC(=O)CCCc1nc2ccccc2nc1N=Nc1ccccc1`, the TGI in [1] is 72.7 µM; in [2], > 100 µM; in [3] it was > 100 µM; in experiment [4] it was > 100 µM; in experiment [5], > 100 µM; in [6], > 100 µM. The TGI in experiment [7], in experiment [8], in [9] and in experiment [10] was > 100 µM throughout.

The values above are taken from PubChem BioAssay (NCI).
